Results as given in ChEMBL document CHEMBL1201862, “PubChem BioAssay data set” (2004).
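Results reflect a 48-hour exposure of cells in 96-well plates to compound at five concentrations. Here, GI50 denotes the concentration required for 50% inhibition of growth.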 Activity calls are given as the source filed them. Cut-off read from the data, not from the text of the source: active = GI50 up to about 1.1 µM and inactive = higher.

How the values were obtained:
Assay in all cases: inhibition of tumour cell growth, NCI panel, 48 h
COLO 205 = test system: COLO 205
EKVX = test system: EKVX
HCC 2998 = test system: HCC 2998
HCT-116 = test system: HCT-116
K562 = test system: K562
KM12 = test system: KM12
MCF7 = test system: MCF7
MDA-N = test system: MDA-N
MOLT-4 = test system: MOLT-4
Malme-3M = test system: Malme-3M
NCI-H460 = test system: NCI-H460
PC-3 = test system: PC-3
RPMI-8226 = test system: RPMI-8226
SF-268 = test system: SF-268
SF-295 = test system: SF-295
SK-MEL-28 = test system: SK-MEL-28
SK-MEL-2 = test system: SK-MEL-2
UACC-62 = test system: UACC-62
UO-31 = test system: UO-31

| Structure (SMILES) | GI50 (COLO 205) | GI50 (EKVX) | GI50 (HCC 2998) | GI50 (HCT-116) | GI50 (K562) | GI50 (KM12) | GI50 (MCF7) | GI50 (MDA-N) | GI50 (MOLT-4) | GI50 (Malme-3M) | GI50 (NCI-H460) | GI50 (PC-3) | GI50 (RPMI-8226) | GI50 (SF-268) | GI50 (SF-295) | GI50 (SK-MEL-28) | GI50 (SK-MEL-2) | GI50 (UACC-62) | GI50 (UO-31) |
| --- | --- | --- | --- | --- | --- | --- | --- | --- | --- | --- | --- | --- | --- | --- | --- | --- | --- | --- | --- |
| Cc1ccc2nc(/C=N/c3ccccc3Cl)cc(C)c2c1 | 50.8 µM (inactive) | 20.4 µM (inactive) | 47.3 µM (inactive) | 4.21 µM (inactive) | 19.1 µM (inactive) | 17.4 µM (inactive) | 17.5 µM (inactive) | 5.57 µM (inactive) | 5.79 µM (inactive) | 20.8 µM (inactive) | 17.2 µM (inactive) | 25.4 µM (inactive) | 8.75 µM (inactive) | 16 µM (inactive) | 21.9 µM (inactive) | 18.9 µM (inactive) | 40.2 µM (inactive) | 14.6 µM (inactive) | 16.5 µM (inactive) |
| COc1ccc2c(c1)c1c3c(ccc4ncn2c43)N(CCN(C)C)CCN=1 | 0.356 µM (active) | 0.586 µM (active) | 0.422 µM (active) | 0.298 µM (active) | 0.0488 µM (active) | 0.374 µM (active) | 0.288 µM (active) | 0.438 µM (active) | 0.043 µM (active) | 1.2 µM (inactive) | 0.176 µM (active) | 0.357 µM (active) | 1.48 µM (inactive) | 0.836 µM (active) | 0.494 µM (active) | 0.897 µM (active) | 1.03 µM (active) | 1.23 µM (inactive) | 0.404 µM (active) |
| O=C(O)CSSCC(=O)O | > 100 µM (inactive) | > 100 µM (inactive) | > 100 µM (inactive) | > 100 µM (inactive) | > 100 µM (inactive) | > 100 µM (inactive) | > 100 µM (inactive) | > 100 µM (inactive) | > 100 µM (inactive) | > 100 µM (inactive) | > 100 µM (inactive) | > 100 µM (inactive) | > 100 µM (inactive) | > 100 µM (inactive) | > 100 µM (inactive) | > 100 µM (inactive) | > 100 µM (inactive) | > 100 µM (inactive) | > 100 µM (inactive) |
| CCOC(=O)c1cc(C2CCN(c3ccccc3)C2=O)c(C(=O)/C=C(/C)O)[nH]1 (stereo unspecified) | > 100 µM (inactive) | 24.7 µM (inactive) | > 100 µM (inactive) | 65.8 µM (inactive) | 64 µM (inactive) | 45.2 µM (inactive) | 59.8 µM (inactive) | 58.6 µM (inactive) | 42.7 µM (inactive) | > 100 µM (inactive) | > 100 µM (inactive) | 88.3 µM (inactive) | 48.9 µM (inactive) | > 100 µM (inactive) | 70.8 µM (inactive) | > 100 µM (inactive) | > 100 µM (inactive) | 82 µM (inactive) | 66.7 µM (inactive) |
| C[n+]1ccc2/c(=C\C#N)c3ccccc3n21 | 19.7 µM (inactive) | 24.9 µM (inactive) | 19 µM (inactive) | 29.7 µM (inactive) | 61.2 µM (inactive) | 19.2 µM (inactive) | 20.5 µM (inactive) | 32.5 µM (inactive) | 30.8 µM (inactive) | 17.1 µM (inactive) | 31 µM (inactive) | 25.9 µM (inactive) | 11.8 µM (inactive) | 32.2 µM (inactive) | 33.7 µM (inactive) | 23.1 µM (inactive) | 30.8 µM (inactive) | 34.8 µM (inactive) | > 100 µM (inactive) |
| O=C1C(CN2CCCC2)CCC1CN1CCCC1 (stereo unspecified) | 5.71 µM (inactive) | > 49.7 µM (inactive) | > 100 µM (inactive) | 17.5 µM (inactive) | 2.9 µM (inactive) | > 100 µM (inactive) | 19.4 µM (inactive) | 16 µM (inactive) | 5.31 µM (inactive) | 15.1 µM (inactive) | > 100 µM (inactive) | 23.7 µM (inactive) | 3.59 µM (inactive) | 20.8 µM (inactive) | > 100 µM (inactive) | 18.7 µM (inactive) | 21.2 µM (inactive) | 17.5 µM (inactive) | 17.8 µM (inactive) |
| COC1OC2COC1(OCc1ccccc1)C1OC(C)(C)OC21 (stereo unspecified) | > 100 µM (inactive) | > 100 µM (inactive) | > 100 µM (inactive) | > 100 µM (inactive) | > 100 µM (inactive) | > 100 µM (inactive) | > 100 µM (inactive) | > 100 µM (inactive) | > 100 µM (inactive) | > 100 µM (inactive) | > 100 µM (inactive) | > 100 µM (inactive) | > 100 µM (inactive) | > 100 µM (inactive) | > 100 µM (inactive) | > 100 µM (inactive) | > 100 µM (inactive) | > 100 µM (inactive) | > 100 µM (inactive) |
| O=C(/C=C/c1ccc(-c2ccccc2)cc1)NCc1ccc(C(=O)NCCc2ccccc2)cc1 | > 100 µM (inactive) | > 100 µM (inactive) | > 100 µM (inactive) | 34.4 µM (inactive) | 88.5 µM (inactive) | > 100 µM (inactive) | 25.4 µM (inactive) | > 100 µM (inactive) | 96.6 µM (inactive) | 31.6 µM (inactive) | > 100 µM (inactive) | > 100 µM (inactive) | > 100 µM (inactive) | > 100 µM (inactive) | > 100 µM (inactive) | > 100 µM (inactive) | > 100 µM (inactive) | > 100 µM (inactive) | > 100 µM (inactive) |
| CC(O)CC(=O)CO[C@H]1[C@H](O)[C@@H](O)[C@@H](O)[C@@H]2NC(=O)c3c(cc4c(c3O)OCO4)[C@H]21 (stereo partly specified) | 0.0332 µM (active) | 0.0266 µM (active) | 0.0181 µM (active) | 0.0264 µM (active) | 0.0392 µM (active) | 0.0316 µM (active) | 0.0194 µM (active) | 0.0366 µM (active) | 0.0313 µM (active) | 0.0118 µM (active) | 0.0275 µM (active) | 0.0272 µM (active) | 0.0226 µM (active) | 0.0222 µM (active) | 0.0299 µM (active) | < 0.0201 µM (active) | 0.0363 µM (active) | 0.0541 µM (active) | 0.115 µM (active) |
| CN(C)CCC(=O)[C@@]1(O)CC[C@H]2[C@@H]3CC=C4C[C@@H](O)CC[C@]4(C)[C@H]3CC[C@@]21C | 18.4 µM (inactive) | 20.7 µM (inactive) | 21.3 µM (inactive) | 18 µM (inactive) | 18.2 µM (inactive) | 15.1 µM (inactive) | 4.38 µM (inactive) | 17.7 µM (inactive) | 13.9 µM (inactive) | 15.3 µM (inactive) | 15.4 µM (inactive) | 13.4 µM (inactive) | 1.58 µM (inactive) | 16.9 µM (inactive) | 24.9 µM (inactive) | 17.2 µM (inactive) | 15.9 µM (inactive) | 16.7 µM (inactive) | 15.6 µM (inactive) |
| CC(=O)OCC1OC(OCCCOP(=O)(OCCC#N)OCC2OC(n3cnc4c(N)ncnc43)C(OC(=O)c3ccccc3)C2OC(=O)c2ccccc2)C(OC(C)=O)C(OC(C)=O)C1OC(C)=O (stereo unspecified) | > 100 µM (inactive) | > 100 µM (inactive) | > 100 µM (inactive) | > 100 µM (inactive) | > 100 µM (inactive) | > 100 µM (inactive) | > 100 µM (inactive) | > 100 µM (inactive) | > 100 µM (inactive) | 1.06 µM (active) | > 100 µM (inactive) | > 100 µM (inactive) | > 64.1 µM (inactive) | > 100 µM (inactive) | > 100 µM (inactive) | > 100 µM (inactive) | > 100 µM (inactive) | > 100 µM (inactive) | > 100 µM (inactive) |
| CN(C)C(=O)Nc1cc2c3c(c1)CCCN3CCC2 | > 10 µM (inactive) | > 10 µM (inactive) | > 10 µM (inactive) | > 10 µM (inactive) | > 10 µM (inactive) | > 10 µM (inactive) | > 10 µM (inactive) | > 10 µM (inactive) | > 10 µM (inactive) | > 10 µM (inactive) | > 10 µM (inactive) | > 10 µM (inactive) | > 10 µM (inactive) | > 10 µM (inactive) | > 10 µM (inactive) | > 10 µM (inactive) | > 10 µM (inactive) | > 10 µM (inactive) | > 10 µM (inactive) |
| CC(=O)c1cc2c(s1)C(=O)c1ccccc1C2=O | 4.72 µM (inactive) | 4.39 µM (inactive) | 5.37 µM (inactive) | 1.68 µM (inactive) | 2.09 µM (inactive) | 2.04 µM (inactive) | 2.08 µM (inactive) | 1.63 µM (inactive) | 2.48 µM (inactive) | 1.28 µM (inactive) | 1.05 µM (active) | 3.24 µM (inactive) | 2.38 µM (inactive) | 2.73 µM (inactive) | 2.79 µM (inactive) | 8.05 µM (inactive) | 4.31 µM (inactive) | 2.51 µM (inactive) | 1.79 µM (inactive) |
| CC(Oc1ccccc1Cl)C(=O)NN1C(=O)CC(=O)NC1=S (stereo unspecified) | > 100 µM (inactive) | > 100 µM (inactive) | > 100 µM (inactive) | > 100 µM (inactive) | 9.53 µM (inactive) | 83.8 µM (inactive) | > 100 µM (inactive) | > 100 µM (inactive) | > 100 µM (inactive) | > 100 µM (inactive) | > 100 µM (inactive) | > 100 µM (inactive) | 98.9 µM (inactive) | > 100 µM (inactive) | 89.5 µM (inactive) | > 100 µM (inactive) | 93.5 µM (inactive) | 46.1 µM (inactive) | 92.5 µM (inactive) |
